Values joined by “and” are separate entries in the source; they are usually repeats but may differ in a detail not shown here. Equal entries are not always repeated. Where two headings read alike, the source gives them in different places.
Assay: Pharmacokinetics in humans, MRTX1133 formulation, oral, single and multiple doses
Assay type: in vivo
Conditions: for AUC0-12 Accumulation Ratio, Geo Mean / Cmax Accumulation Ratio, Geo Mean / Peak to Trough Ratio, Geo Mean: geometric mean of subjects
Method: The pharmacokinetics [PK] of the MRTX1133 formulation after oral administration has been evaluated in 25 subjects across 3 escalating dose frequencies under fasting conditions (200 mg twice daily [BID], 400 mg BID, and 800 mg BID), as well as evaluation of 400 mg BID when administered with a low-fat meal (i.e., under fed conditions). The mean (+standard deviation) single-dose and multiple-dose pharmacokinetic profiles of the evaluated doses are presented in FIG. 9 and FIG. 10, respectively. Individual single- and multiple-dose PK profiles can be found in FIG. 11. For all figures, the X-axis represents nominal time of sample collection (hours [h]) and the Y-axis represents plasma concentration (ng/mL). Table 10 lists PK data following the oral administration of a single dose and multiple doses of MRTX1133 formulation by dose level and subject.

[1] = multiple oral doses of 200 mg BID, fasted
[2] = multiple oral doses of 200 mg BID, fasted, individual subjects
[3] = multiple oral doses of 400 mg BID with a low-fat meal
[4] = multiple oral doses of 400 mg BID with a low-fat meal, individual subjects
[5] = multiple oral doses of 400 mg BID, fasted
[6] = multiple oral doses of 400 mg BID, fasted, individual subjects
[7] = multiple oral doses of 800 mg BID, fasted, Geo Mean of subjects

**Q.** Which concentration at 0 h (human, plasma, po, 800 mg, single oral dose of 800 mg, fasted, 0 h, individual subjects, read-out: Plasma concentration) does the source give for `C#Cc1c(F)ccc2cc(O)cc(-c3ncc4c(N5C[C@H]6CC[C@@H](C5)N6)nc(OC[C@@]56CCCN5C[C@H](F)C6)nc4c3F)c12` [MRTX1133, 4-(4-((1R,5S)-3,8-diazabicyclo[3.2.1]octan-3-yl)-8-fluoro-2-(((2R,7aS)-2-fluorohexahydro-1Hpyrrolizin-7a-yl)methoxy)pyrido[4,3-d]pyrimidin-7-yl)-5-ethynyl-6-fluoronaphthalen-2-ol] here?
**A.** 0 ng/mL

**Q.** And the concentration at 0.5 h (human, plasma, po, 800 mg, single oral dose of 800 mg, fasted, 0.5 h, mean of subjects, read-out: Plasma concentration, Mean)?
**A.** 235 ng/mL

**Q.** And the concentration at 1 h (human, plasma, po, 800 mg, single oral dose of 800 mg, fasted, 1 h, mean of subjects, read-out: Plasma concentration, Mean)?
**A.** 286 ng/mL

**Q.** What about the concentration at 1.5 h (human, plasma, po, 800 mg, single oral dose of 800 mg, fasted, 1.5 h, mean of subjects, read-out: Plasma concentration, Mean) of the same compound?
**A.** 151 ng/mL

**Q.** And the concentration at 2 h (human, plasma, po, 800 mg, single oral dose of 800 mg, fasted, 2 h, mean of subjects, read-out: Plasma concentration, Mean)?
**A.** 117 ng/mL

**Q.** And the concentration at 4 h (human, plasma, po, 800 mg, single oral dose of 800 mg, fasted, 4 h, mean of subjects, read-out: Plasma concentration, Mean)?
**A.** 67.6 ng/mL

**Q.** And the concentration at 6 h (human, plasma, po, 800 mg, single oral dose of 800 mg, fasted, 6 h, mean of subjects, read-out: Plasma concentration, Mean)?
**A.** 57.9 ng/mL

**Q.** And the concentration at 8 h (human, plasma, po, 800 mg, single oral dose of 800 mg, fasted, 8 h, mean of subjects, read-out: Plasma concentration, Mean)?
**A.** 49.7 ng/mL

**Q.** And the concentration at 12 h (human, plasma, po, 800 mg, single oral dose of 800 mg, fasted, 12 h, mean of subjects, read-out: Plasma concentration, Mean)?
**A.** 12.6 ng/mL

**Q.** What about the concentration at 24 h (human, plasma, po, 800 mg, single oral dose of 800 mg, fasted, 24 h, mean of subjects, read-out: Plasma concentration, Mean) of the same compound?
**A.** 25.5 ng/mL

**Q.** And the AUC(0-t) (human, plasma, po, 800 mg, single oral dose of 800 mg, fasted, Geo Mean of subjects, read-out: AUC0-12)?
**A.** 440 ng·h/mL

**Q.** What about the AUC0-inf (human, plasma, po, 800 mg, single oral dose of 800 mg, fasted, Geo Mean of subjects, read-out: AUC0-inf) of the same compound?
**A.** 543 ng·h/mL

**Q.** What about the AUC(0-t) (human, plasma, po, 800 mg, single oral dose of 800 mg, fasted, Geo Mean of subjects, read-out: AUC0-last) of the same compound?
**A.** 463 ng·h/mL

**Q.** And the Cmax (human, plasma, po, 800 mg, single oral dose of 800 mg, fasted, Geo Mean of subjects, read-out: Cmax)?
**A.** 123 ng/mL

**Q.** What about the Tmax (human, plasma, po, 800 mg, single oral dose of 800 mg, fasted, Median of subjects, read-out: Tmax) of the same compound?
**A.** 1.2 h

**Q.** What about the “AUC0-12 Accumulation Ratio, Geo Mean” value [1] of the same compound?
**A.** 0.9

**Q.** And the “Cmax Accumulation Ratio, Geo Mean” value [1]?
**A.** 0.6

**Q.** And the “Peak to Trough Ratio, Geo Mean” value [1]?
**A.** 12.3

**Q.** And the AUC0-12 [2]?
**A.** 181 ng·h/mL and 84.0 ng·h/mL and 42.9 ng·h/mL and 115 ng·h/mL

**Q.** What about the “AUC0-12 Accumulation Ratio” value [2] of the same compound?
**A.** 1.30 and 0.94 and 0.44 and 1.16

**Q.** And the AUC0-last [2]?
**A.** 181 ng·h/mL and 84.0 ng·h/mL and 42.9 ng·h/mL and 115 ng·h/mL and 31.9 ng·h/mL

**Q.** And the Cmax [2]?
**A.** 85.0 ng/mL and 15.0 ng/mL and 49.4 ng/mL and 56.2 ng/mL and 17.1 ng/mL

**Q.** And the “Cmax Accumulation Ratio” value [2]?
**A.** 0.73 and 0.71 and 0.85 and 1.26 and 0.14

**Q.** What about the “Peak to Trough Ratio” value [2] of the same compound?
**A.** 52.1 and 2.75 and 78.2 and 24.9 and 1.02

**Q.** And the Tlast [2]?
**A.** 12 h (4×) and 2.0 h

**Q.** And the Tmax [2]?
**A.** 0.5 h

**Q.** And the “AUC0-12 Accumulation Ratio, Geo Mean” value [3]?
**A.** 1.7

**Q.** And the “Cmax Accumulation Ratio, Geo Mean” value [3]?
**A.** 1.9

**Q.** And the “Peak to Trough Ratio, Geo Mean” value [3]?
**A.** 12.9

**Q.** And the AUC0-12 [4]?
**A.** 1,475 ng · h/mL and 457 ng · h/mL and 107 ng · h/mL and 127 ng · h/mL

**Q.** And the “AUC0-12 Accumulation Ratio” value [4]?
**A.** 2.61 and 1.50 and 2.52 and 0.75

**Q.** What about the AUC0-last [4] of the same compound?
**A.** 1,475 ng · h/mL and 457 ng · h/mL and 107 ng · h/mL and 127 ng · h/mL

**Q.** And the Cmax [4]?
**A.** 390 ng/mL and 250 ng/mL and 48.2 ng/mL and 23.0 ng/mL

**Q.** What about the “Cmax Accumulation Ratio” value [4] of the same compound?
**A.** 4.69 and 2.66 and 1.71 and 0.63

**Q.** What about the “Peak to Trough Ratio” value [4] of the same compound?
**A.** 7.25 and 84.7 and 10.6 and 4.27

**Q.** And the Tlast [4]?
**A.** 12 h

**Q.** And the Plasma concentration (multiple oral doses of 400 mg BID, fasted, 0.5 h, individual subjects)?
**A.** 79.1 ng/mL and 58.5 ng/mL and 82.8 ng/mL and 83.0 ng/mL and 29.7 ng/mL and 23.6 ng/mL and 152 ng/mL

**Q.** What about the Plasma concentration (multiple oral doses of 400 mg BID, fasted, 1 h, individual subjects) of the same compound?
**A.** 129 ng/mL and 31.5 ng/mL and 61.2 ng/mL and 38.4 ng/mL and 11.5 ng/mL and 44.7 ng/mL and 285 ng/mL

**Q.** And the Plasma concentration (multiple oral doses of 400 mg BID, fasted, 1.5 h, individual subjects)?
**A.** 90.2 ng/mL and 28.5 ng/mL and 38.9 ng/mL and 32.3 ng/mL and 15.2 ng/mL and 38.0 ng/mL and 209 ng/mL

**Q.** And the Plasma concentration (multiple oral doses of 400 mg BID, fasted, 2 h, individual subjects)?
**A.** 99.0 ng/mL and 27.2 ng/mL and 55.6 ng/mL and 23.4 ng/mL and 21.1 ng/mL and 30.0 ng/mL and 83.1 ng/mL

**Q.** And the Plasma concentration (multiple oral doses of 400 mg BID, fasted, 4 h, individual subjects)?
**A.** 82.8 ng/mL and 11.0 ng/mL and 115 ng/mL and 23.8 ng/mL and 5.34 ng/mL and 233 ng/mL and 70.5 ng/mL

**Q.** What about the Plasma concentration (multiple oral doses of 400 mg BID, fasted, 6 h, individual subjects) of the same compound?
**A.** 189 ng/mL and 2.51 ng/mL and 45.3 ng/mL and 10.7 ng/mL and 4.38 ng/mL and 148 ng/mL and 43.8 ng/mL

**Q.** And the Plasma concentration (multiple oral doses of 400 mg BID, fasted, 8 h, individual subjects)?
**A.** 88.9 ng/mL and 2.27 ng/mL and 33.3 ng/mL and 8.36 ng/mL and 3.68 ng/mL and 110 ng/mL and 35.5 ng/mL

**Q.** And the Plasma concentration (multiple oral doses of 400 mg BID, fasted, 12 h, individual subjects)?
**A.** 76.9 ng/mL and 2.76 ng/mL and 31.2 ng/mL and 6.42 ng/mL and 3.71 ng/mL and 42.1 ng/mL and 31.3 ng/mL

**Q.** And the “AUC0-12 Accumulation Ratio, Geo Mean” value [5]?
**A.** 1.6

**Q.** What about the “Cmax Accumulation Ratio, Geo Mean” value [5] of the same compound?
**A.** 1.3

**Q.** What about the “Peak to Trough Ratio, Geo Mean” value [5] of the same compound?
**A.** 11.1

**Q.** And the AUC0-12 [6]?
**A.** 1,237 ng · h/mL and 128 ng · h/mL and 640 ng · h/mL and 211 ng · h/mL and 89.4 ng · h/mL and 1,239 ng · h/mL and 821 ng · h/mL

**Q.** And the “AUC0-12 Accumulation Ratio” value [6]?
**A.** 3.02 and 1.35 and 5.02 and 1.40 and 0.76 and 0.73 and 1.41

**Q.** What about the AUC0-last [6] of the same compound?
**A.** 1,237 ng · h/mL and 128 ng · h/mL and 640 ng · h/mL and 211 ng · h/mL and 89.4 ng · h/mL and 1,239 ng · h/mL and 821 ng · h/mL

**Q.** And the Cmax [6]?
**A.** 189 ng/mL and 58.5 ng/mL and 115 ng/mL and 83.0 ng/mL and 29.7 ng/mL and 233 ng/mL and 285 ng/mL

**Q.** What about the “Cmax Accumulation Ratio” value [6] of the same compound?
**A.** 3.04 and 0.94 and 1.73 and 1.17 and 0.80 and 0.83 and 1.52

**Q.** What about the “Peak to Trough Ratio” value [6] of the same compound?
**A.** 3.30 and 101 and 3.47 and 9.10 and 6.32 and 23.7 and 13.4

**Q.** What about the Tlast [6] of the same compound?
**A.** 12 h

**Q.** What about the Tmax [6] of the same compound?
**A.** 6.0 h and 0.5 h (3×)

**Q.** And the “AUC0-12 Accumulation Ratio” value [7]?
**A.** 1.0

**Q.** What about the “Cmax Accumulation Ratio” value [7] of the same compound?
**A.** 0.8

**Q.** What about the “Peak to Trough Ratio” value [7] of the same compound?
**A.** 9.6
